Results from patent US11266715B2, “C3A receptor agonists for use against ischemic brain injury, stroke, traumatic brain injury, spinal cord injury and neurodegenerative disorders” (priority 2016, dated 2022).

How the values were obtained:
[1] = system: newly differentiated neurons; settings: in vitro; cited from earlier work
[2] = system: WT mice subjected to photothrombotic stroke in the motor cortex; experiment: Grid walking task after photothrombotic stroke; type: in vivo, mouse
Method: Cortical photothrombosis was induced using the Rose Bengal method (Lee et al., 2007; Watson et al., 1985) with some modifications. Anesthesia was induced with isoflurane (Forene®, Abbott) in air and oxygen (1:1) initially at 5% and reduced to 2.5% during the surgical procedure. Body temperature was monitored by a rectal probe and maintained at 37° C. using a homeothermic control unit (Harvard Apparatus). Anesthetized mice were placed in a stereotaxic frame, the skull was exposed through a midline scalp incision and Rose Bengal (200 μl, 10 mg/ml solution in sterile saline, Sigma) was injected intraperitoneally. After 5 min, the skull and underlying brain tissue were illuminated for 12 min by a 2 mm diameter cold laser beam (50 mW, 561 nm; Cobolt AB) positioned at AP +0.5 mm and ML −2.7 mm relative to Bregma, targeting the border between left primary somatosensory and motor cortex (Porritt et al., 2012). For intervention experiments targeting motor cortex, stroke was induced as above with the following modifications: Transcranial illumination lasting 15 min was delivered using cold light source (LQ1600, Fiberoptic-Heim AG) equipped with 2 mm wide fiber optic probe and directed to AP +0 and ML −1.5 relative to Bregma. After illumination, the scalp was sutured and mice were placed in a warm cage for 45 min to recover from anesthesia prior to being returned to the home cage. Mice were provided with moist mashed food placed on the floor of the home cage and their weight was monitored daily for 7 days after surgery. There were no significant differences in body weight, body temperature (36.5±0.5° C.), duration of surgery, or post-stroke mortality between cohorts. Each cohort contained an even distribution of mice from the matched strains or treatment groups.
(§1) Purified human C3a peptide (Complement Technologies) was diluted in sterile phosphate buffered saline (PBS) to a concentration of 200 nM and a total of 20 μl (10 μl/nostril; corresponding to approximately 1.13 μg/kg body weight) of peptide solution or PBS was given intranasally to awake, hand-restrained mice held in a supine position. Solutions were administered through a pipette tip, drop-wise in 5 μl portions divided by 1 min intervals to allow for absorption. C3a or PBS was given every 24 hours on days 7 to 21 post-stroke for the short-term study or on days 7 to 28 post-stroke for the long-term study. Mice were assigned to C3a or PBS treatment using randomization stratified by body weight to avoid potential confounding effects of body weight on behavioural performance. The investigators carrying out behavioural studies and analysing data were blinded to treatment group. For the assessment of potential systemic anaphylactic response due to intranasal C3a inoculation, body temperature was monitored using a rectal temperature probe (Harvard Apparatus) inserted approximately 4 mm into the rectum of awake mice restrained by the scruff. Baseline temperature was taken before intranasal administration and 5, 15, 30, 45 and 75 min after C3a or PBS administration.
Functional impairment of mice treated intranasally with C3a or vehicle was assessed using a modified cylinder test and a grid walking task to closely evaluate forepaw function. Mice were tested once on each task one week before stroke induction to establish baseline performance. Next, they were tested on days 7, 14 and 21 (short-term study) or days 7, 14, 28, 42 and 56 (long-term study) post-stroke. […]

[3] = system: adult mice with global cerebral ischemia; settings: single intraventricular injection of C3a 30 min prior to training, assessed 24 h later; cited from earlier work
[4] = Body temperature monitoring for systemic anaphylactic response after intranasal C3a; type: in vivo, mouse
Method: as §1

Question: What does the source list for “C3a: Purified human C3a peptide (Complement Technologies), C3a receptor agonist, amino acid sequence SEQ ID NO: 1”?
Answer: neurite outgrowth [1]: increased neurite outgrowth; right foot faults vs PBS-treated mice at days 14 and 56 post-stroke ([2]; long-term study, C3a days 7-28, P=0.0097 and P=0.047, Mann-Whitney U test): significantly fewer right foot faults; grid walking performance day 56 vs pre-stroke baseline ([2]; long-term study, Dunn's test P=0.103): did not differ from pre-stroke baseline levels; foot faults day 14 vs day 7 post-stroke (first week of treatment) ([2]; long-term study, P=0.041 Dunn's test, P=0.039 Wilcoxon test): significant reduction in foot faults; right paw foot faults, days 14 and 21 vs day 7 ([2]; short-term study, C3a days 7-21, P=0.0545 and P=0.0839, Dunnett's test): tendency toward reduced number of right paw foot faults; grid walking performance vs baseline at all time points after stroke ([2]; short-term study, P<0.001, both groups): significant impairment with respect to the baseline performance; amnesia induced by global cerebral ischemia [3]: ameliorate amnesia; duration of the drop in body temperature ([4]; after intranasal C3a or PBS): 5 to 10 min; adverse or systemic effects of intranasal C3a ([4]; even after repeated administration, stroke studies): did not observe any adverse or systemic effects; adverse systemic response (hypersensitivity/anaphylaxis) to intranasal C3a ([4]; judged from body temperature): absence of an adverse systemic response; change in body temperature after intranasal administration ([4]; rectal probe, awake mice, baseline and 5, 15, 30, 45, 75 min after intranasal C3a, same seen with PBS): very small drop in body temperature
